SMILES strings stand for the structures.

One assay concerns MCF7/FasR cells. As to the kind of experiment: Cell death with or without pan-caspase inhibitor z-VAD-fmk, MTT. The assay is classed as cell-based, human. The conditions noted are these: 500 nM complex, 10 µM z-VAD-fmk, 458 nm irradiation, 72 h. From the text: To determine the mechanism of cell death, we used MCF7 cells transfected to express the human Fas receptor (FasR) or doubly transfected to express the human Fas receptor and human Bcl-xL [75]. Since MCF7 cells express the TNF receptor endogenously, this allowed the study of both Fas- and TNFα-mediated apoptosis in the same cell model to assess whether cell death was dependent on the Bcl-2 family of mitochondrial proteins such as Bcl-xL. […] This is consistent with findings that death receptors such as FasR and TNFR can mediate apoptosis through both the extrinsic pathway (mitochondria-independent by directly activating executioner caspases via upstream caspase-8) and the intrinsic (mitochondrial) pathway controlled by the Bcl-2 family of proteins.
We next evaluated the effect of the pan-caspase inhibitor z-VAD-fmk on caspase signaling. As expected, the treatment with z-VAD-fmk rendered MCF7/FasR cells resistant to TNFα-induced PARP and caspase-7 processing (Figure 14A) and to the loss of cell viability (Figure 14B).
A tetrazolium-based MTT reagent (3-(4,5-dimethylthiazol-2-yl)-2,5-diphenyltetrazolium bromide) was used to determine cell viability, as previously described. After 72 h of treatment at 37 °C and 5% CO2, cells were incubated with 25 μL MTT solution (5 mg/mL; Sigma-Aldrich) for 4 h. After solubilization with 500 μL of lysis buffer (DMSO), formazan was quantified by spectrophotometry with a microplate reader at 570 nm absorbance (ClarioSTAR, BMG LabTech, Champigny-sur-Marne, France). […] All results were calculated from data obtained in at least three independent experiments.
Figure 11 Bcl-xL and z-VAD-fmk inhibited by Fas- or TNFα-induced cell death in MCF7 cells. […] Cell death was assessed by MTT assay. […]
Figure 14 Evaluation of apoptotic biomarkers. […] (B) Cell viability was evaluated in duplicate samples. Data are expressed as percent (%) of untreated cells and are the means of 3 independent experiments (***, p < 0.0001, NS, not significant).

Assay [1] has as its system MCF7/FasR and MCF7/FasR/Bcl-xL cells. Put plainly: GSH quantification (GSH-Glo). The assay is classed as cell-based, human. Conditions: complex 4a all doses with 458 nm irradiation; TNFα 100 ng/mL; 72 h. Here is the method:
ATP and glutathione (GSH) contents were measured with the Promega CellTiter-Glo (Cat#G7570) and GSH-Glo (cat#6911) luminescent assays, respectively, according to the manufacturer’s recommendations.
Figure 13 Evaluation of apoptotic biomarkers. MCF7/FasR and MCF7/FasR/Bcl-xL cells were irradiated at 458 nm in presence of the indicated concentration of complex 4a or treated with […] TNFα for 72 h. (A) Cytosolic extracts from MCF7/FasR and MCF7/FasR/Bcl-xL cells were separated by SDS-PAGE and probed with anti-PARP, anti-caspase-7 and anti-caspase-8. Migrations indicated are: full-length PARP p113, cleaved PARP p89, full-length caspase-7 and full-length caspase-8. (B) MTT, ATP and GSH assays were evaluated in duplicate samples. Data are expressed as percent (%) of untreated cells and are the means of 3 independent experiments (***, p < 0.0001, NS, not significant).

On to `CC(C)[n+]1ccn2[c]1[Ir-3]13([c]4ccccc4-c4cccc[n+]41)([c]1ccccc1-c1cccc[n+]13)[c]1n(cc[n+]1C(C)C)C2.F[P-](F)(F)(F)(F)F` [Complex 4a], for which the “effect of z-VAD-fmk on cell death induced by the complex” value in the assay with MCF7/FasR cells is “could not prevent cell death”. Also, the “level of reduced GSH” value in assay [1] is on record as “decreased”.

The values are drawn from paper PMC9861386, “N-Heterocyclic Carbene-Iridium Complexes as Photosensitizers for In Vitro Photodynamic Therapy to Trigger Non-Apoptotic Cell Death in Cancer Cells” (Molecules, 2023).
